Source: US9012443B2 (Amgen Inc., priority 2011, dated 2015)

Columns and labels:
Nav 1.7 [1] = molecular target: T1, Nav 1.7 (Homo sapiens (Human), UniProt Q15858); assay: Nav 1.7 in vitro PX assay (PatchXpress whole cell voltage clamp); type: cell-based; conditions: 293 cells, human Nav1.7, partially inactivated state; read-out: Nav1.7 PX IC50 IP
Method in brief: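 HEK293 cells stably expressing human Nav1.7, whole-cell voltage clamp on PatchXpress, held at potential giving 20–50% inactivation; current elicited by 20 msec pulse to −10 mV.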

Nav 1.7 [2] = molecular target: T1, Nav 1.7; assay: Nav 1.7 IWQ in vitro assay (IonWorks Quattro population patch-clamp); type: cell-based; conditions: 293 cells stably transfected with Nav 1.7; second part of table; read-out: Nav1.7 IWQ IC50 IP
Method in brief: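 HEK293 cells stably expressing Nav 1.7, recorded by automated population patch-clamp with a train of depolarizations producing increasing inactivation. Single compound concentration added during 3–8 min unclamped period, then same protocol repeated. Leak-corrected current at 26th pulse to −20 mV gave percent block (duplicate); IC50 fitted from concentration–block curves.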

T1 sequence (Q15858 whole entry): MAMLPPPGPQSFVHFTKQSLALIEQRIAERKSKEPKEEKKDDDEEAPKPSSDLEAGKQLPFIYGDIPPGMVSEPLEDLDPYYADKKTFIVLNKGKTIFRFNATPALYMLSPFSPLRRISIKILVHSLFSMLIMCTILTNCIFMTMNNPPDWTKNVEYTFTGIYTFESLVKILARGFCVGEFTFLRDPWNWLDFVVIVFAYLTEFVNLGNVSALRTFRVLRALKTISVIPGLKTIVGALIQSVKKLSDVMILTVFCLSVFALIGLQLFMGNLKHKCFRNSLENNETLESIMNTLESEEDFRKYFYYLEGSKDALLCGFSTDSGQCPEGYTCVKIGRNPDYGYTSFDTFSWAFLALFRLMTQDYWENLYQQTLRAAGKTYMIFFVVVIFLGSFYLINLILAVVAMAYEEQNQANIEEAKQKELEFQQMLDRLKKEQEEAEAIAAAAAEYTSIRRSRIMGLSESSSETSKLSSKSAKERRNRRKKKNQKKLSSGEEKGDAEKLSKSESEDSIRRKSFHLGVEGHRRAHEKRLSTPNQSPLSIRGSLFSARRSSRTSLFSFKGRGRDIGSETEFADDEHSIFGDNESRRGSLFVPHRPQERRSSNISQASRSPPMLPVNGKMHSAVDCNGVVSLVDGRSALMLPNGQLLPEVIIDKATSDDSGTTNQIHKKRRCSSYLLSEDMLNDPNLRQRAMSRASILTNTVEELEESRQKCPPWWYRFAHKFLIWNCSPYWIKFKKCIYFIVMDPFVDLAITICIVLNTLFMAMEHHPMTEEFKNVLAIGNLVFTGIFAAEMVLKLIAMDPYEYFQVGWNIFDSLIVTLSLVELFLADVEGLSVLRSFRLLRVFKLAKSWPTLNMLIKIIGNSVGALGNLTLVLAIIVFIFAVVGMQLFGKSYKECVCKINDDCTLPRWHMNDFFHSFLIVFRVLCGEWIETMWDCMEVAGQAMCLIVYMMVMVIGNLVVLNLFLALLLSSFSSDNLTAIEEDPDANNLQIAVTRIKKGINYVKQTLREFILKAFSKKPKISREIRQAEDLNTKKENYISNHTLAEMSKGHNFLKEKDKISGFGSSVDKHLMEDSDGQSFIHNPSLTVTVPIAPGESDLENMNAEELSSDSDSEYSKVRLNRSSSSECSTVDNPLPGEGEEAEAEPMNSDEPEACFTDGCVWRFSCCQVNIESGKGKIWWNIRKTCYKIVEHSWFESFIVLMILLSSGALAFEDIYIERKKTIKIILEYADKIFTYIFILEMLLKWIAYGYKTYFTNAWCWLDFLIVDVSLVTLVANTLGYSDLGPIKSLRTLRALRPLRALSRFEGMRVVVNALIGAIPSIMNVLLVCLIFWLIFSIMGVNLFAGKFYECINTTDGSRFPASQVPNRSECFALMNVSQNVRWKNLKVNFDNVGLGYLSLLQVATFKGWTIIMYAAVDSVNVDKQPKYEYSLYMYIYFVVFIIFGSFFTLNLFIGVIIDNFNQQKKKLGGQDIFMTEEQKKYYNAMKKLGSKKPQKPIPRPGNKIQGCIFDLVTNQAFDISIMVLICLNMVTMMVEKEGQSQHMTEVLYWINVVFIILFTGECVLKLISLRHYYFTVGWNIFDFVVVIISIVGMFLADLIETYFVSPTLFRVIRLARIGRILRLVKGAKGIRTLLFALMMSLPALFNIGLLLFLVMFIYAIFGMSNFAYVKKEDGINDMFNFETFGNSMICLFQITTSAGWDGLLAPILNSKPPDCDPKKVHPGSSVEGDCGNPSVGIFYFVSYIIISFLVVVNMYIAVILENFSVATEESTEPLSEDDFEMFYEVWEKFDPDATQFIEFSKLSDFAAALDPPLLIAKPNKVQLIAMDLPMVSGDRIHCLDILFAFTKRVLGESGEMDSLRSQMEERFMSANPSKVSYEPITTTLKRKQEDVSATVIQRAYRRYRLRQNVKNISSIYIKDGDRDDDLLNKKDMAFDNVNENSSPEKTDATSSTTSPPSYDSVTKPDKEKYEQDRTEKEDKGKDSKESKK

SMILES: C[C@@H](COc1ccc(Cl)cc1)Oc1nccc2cc(S(=O)(=O)Nc3ccncn3)ccc12 [Example 131, (S)-1-((1-(4-CHLOROPHENOXY)PROPAN-2-YL)OXY)-N-(PYRIMIDIN-4-YL)ISOQUINOLINE-6-SULFONAMIDE]
- IC50 (Nav 1.7 [1]): 4190 nM
- IC50 (Nav 1.7 [2]): 810 nM

SMILES: COc1cc(Cl)ccc1-c1ncc(F)c2cc(S(=O)(=O)Nc3nccs3)ccc12 [Example 215, 1-(4-CHLORO-2-METHOXYPHENYL)-4-FLUORO-N-(THIAZOL-2-YL)ISOQUINOLINE-6-SULFONAMIDE]
- IC50 (Nav 1.7 [1]): 86 nM
- IC50 (Nav 1.7 [2]): 20 nM

SMILES: COc1ccccc1-c1nncc2cc(S(=O)(=O)Nc3nccs3)ccc12 [Example 252, 1-(2-METHOXYPHENYL)-N-(THIAZOL-2-YL)PHTHALAZINE-6-SULFONAMIDE]
- IC50 (Nav 1.7 [1]): 1920 nM
- IC50 (Nav 1.7 [2]): 120 nM

SMILES: COc1cc(F)ccc1-c1nncc2cc(S(=O)(=O)Nc3ncc(F)s3)ccc12 [Example 256, 1-(4-FLUORO-2-METHOXYPHENYL)-N-(5-FLUOROTHIAZOL-2-YL)PHTHALAZINE-6-SULFONAMIDE]
- IC50 (Nav 1.7 [1]): 840 nM
- IC50 (Nav 1.7 [2]): 70 nM

SMILES: COc1ccc(C#N)cc1-c1nccc2cc(S(=O)(=O)Nc3ccncn3)ccc12 [Example 150, 1-(5-CYANO-2-METHOXYPHENYL)-N-(PYRIMIDIN-4-YL)ISOQUINOLINE-6-SULFONAMIDE]
- IC50 (Nav 1.7 [1]): 7190 nM
- IC50 (Nav 1.7 [2]): 120 nM

SMILES: COc1ccc(Cl)cc1-c1nccc2cc(S(=O)(=O)Nc3ccncn3)ccc12 [Example 146, 1-(5-CHLORO-2-METHOXYPHENYL)-N-(PYRIMIDIN-4-YL)ISOQUINOLINE-6-SULFONAMIDE]
- IC50 (Nav 1.7 [1]): 1370 nM
- IC50 (Nav 1.7 [2]): 30 nM

SMILES: O=S(=O)(Nc1nccs1)c1ccc2c(C3CCCN3C3CCOCC3)cccc2c1 (stereo not shown) [Example 102, 5-(1-(TETRAHYDRO-2H-PYRAN-4-YL)PYRROLIDIN-2-YL)-N-(THIAZOL-2-YL)NAPHTHALENE-2-SULFONAMIDE 2,2,2-TRIFLUOROACETATE]
- IC50 (Nav 1.7 [1]): 1540 nM
- IC50 (Nav 1.7 [2]): 110 nM

SMILES: Cn1cncc1-c1cc(C(F)(F)F)ccc1-c1cccc2cc(S(=O)(=O)Nc3ncc(F)s3)ccc12 [Example 110]
- IC50 (Nav 1.7 [1]): 140 nM
- IC50 (Nav 1.7 [2]): 40 nM

SMILES: COc1cc(Cl)ccc1-c1nccc2cc(S(=O)(=O)Nc3ccncn3)ccc12 [Example 160, 1-(4-CHLORO-2-METHOXYPHENYL)-N-(PYRIMIDIN-4-YL)ISOQUINOLINE-6-SULFONAMIDE]
- IC50 (Nav 1.7 [1]): 1330 nM
- IC50 (Nav 1.7 [2]): 20 nM

SMILES: COc1cc(C#N)ccc1-c1ccnc2cc(S(=O)(=O)Nc3nccs3)ccc12 [Example 273, 4-(4-CYANO-2-METHOXYPHENYL)-N-(THIAZOL-2-YL)QUINOLINE-7-SULFONAMIDE]
- IC50 (Nav 1.7 [1]): 500 nM
- IC50 (Nav 1.7 [2]): 20 nM

SMILES: O=S(=O)(Nc1ncns1)c1ccc2c(C3CCCN3Cc3ccccc3)cccc2c1 (stereo not shown) [Example 97]
- IC50 (Nav 1.7 [1]): 2220 nM
- IC50 (Nav 1.7 [2]): 460 nM

SMILES: COc1cc(C(F)(F)F)ccc1-c1nncc2cc(S(=O)(=O)Nc3ncc(F)s3)ccc12 [Example 255, N-(5-FLUOROTHIAZOL-2-YL)-1-(2-METHOXY-4-(TRIFLUOROMETHYL)PHENYL)PHTHALAZINE-6-SULFONAMIDE]
- IC50 (Nav 1.7 [1]): 150 nM
- IC50 (Nav 1.7 [2]): 20 nM

SMILES: COc1ncc(Cl)cc1-c1nccc2cc(S(=O)(=O)Nc3nccs3)ccc12 [Example 176, 1-(5-CHLORO-2-METHOXYPYRIDIN-3-YL)-N-(THIAZOL-2-YL)ISOQUINOLINE-6-SULFONAMIDE]
- IC50 (Nav 1.7 [1]): 507 nM
- IC50 (Nav 1.7 [2]): 30 nM

SMILES: O=S(=O)(Nc1ncc(F)s1)c1ccc2c(-c3ccc(C(F)(F)F)cc3C3=CCNCC3)cccc2c1 [Example 108]
- IC50 (Nav 1.7 [1]): 210 nM
- IC50 (Nav 1.7 [2]): 170 nM

SMILES: COc1ccc(OC(F)(F)F)cc1-c1nccc2cc(S(=O)(=O)Nc3ccncn3)ccc12 [Example 151, 1-(2-METHOXY-5-(TRIFLUOROMETHOXY)PHENYL)-N-(PYRIMIDIN-4-YL)ISOQUINOLINE-6-SULFONAMIDE]
- IC50 (Nav 1.7 [1]): 1020 nM
- IC50 (Nav 1.7 [2]): 30 nM

SMILES: O=S(=O)(Nc1ccncn1)c1ccc2c(OCc3cccc4[nH]ncc34)nccc2c1 [Example 136, 1-((1H-INDAZOL-4-YL)METHOXY)-N-(PYRIMIDIN-4-YL)ISOQUINOLINE-6-SULFONAMIDE]
- IC50 (Nav 1.7 [1]): > 30000 nM
- IC50 (Nav 1.7 [2]): 3590 nM

SMILES: COc1cc(-c2cnn(C)c2)ccc1-c1nccc2cc(S(=O)(=O)Nc3nccs3)ccc12 [Example 203, 1-(2-METHOXY-4-(1-METHYL-1H-PYRAZOL-4-YL)PHENYL)-N-(THIAZOL-2-YL)ISOQUINOLINE-6-SULFONAMIDE]
- IC50 (Nav 1.7 [1]): 3290 nM
- IC50 (Nav 1.7 [2]): 310 nM

SMILES: COc1ccccc1-c1ncc(F)c2cc(S(=O)(=O)Nc3nccs3)ccc12 [Example 211, 4-FLUORO-1-(2-METHOXYPHENYL)-N-(THIAZOL-2-YL)ISOQUINOLINE-6-SULFONAMIDE]
- IC50 (Nav 1.7 [1]): 251 nM
- IC50 (Nav 1.7 [2]): 10 nM

SMILES: Cn1c(-c2cccc3cc(S(=O)(=O)Nc4ccncn4)ccc23)cc2cc(F)ccc21 [Example 106]
- IC50 (Nav 1.7 [1]): 3840 nM
- IC50 (Nav 1.7 [2]): 1600 nM

SMILES: CC1CCCN1c1cccc2cc(S(=O)(=O)Nc3ncns3)ccc12 (stereo not shown) [Example 91]
- IC50 (Nav 1.7 [1]): 1470 nM
- IC50 (Nav 1.7 [2]): 270 nM

SMILES: COc1cc(C(F)(F)F)ccc1-c1nc(C#N)cc2cc(S(=O)(=O)Nc3nccs3)ccc12 [Example 220, 3-CYANO-1-(2-METHOXY-4-(TRIFLUOROMETHYL)PHENYL)-N-(THIAZOL-2-YL)ISOQUINOLINE-6-SULFONAMIDE]
- IC50 (Nav 1.7 [1]): 450 nM
- IC50 (Nav 1.7 [2]): 60 nM

SMILES: COc1ccc(C(F)(F)F)cc1-c1nccc2cc(S(=O)(=O)Nc3nccs3)ccc12 [Example 180, 1-(2-METHOXY-5-(TRIFLUOROMETHYL)PHENYL)-N-(THIAZOL-2-YL)ISOQUINOLINE-6-SULFONAMIDE]
- IC50 (Nav 1.7 [1]): 439 nM
- IC50 (Nav 1.7 [2]): 40 nM

SMILES: O=S(=O)(Nc1ncns1)c1ccc2c(C3CCCN3)cccc2c1 (stereo not shown) [Example 95, 5-(PYRROLIDIN-2-YL)-N-(1,2,4-THIADIAZOL-5-YL)NAPHTHALENE-2-SULFONAMIDE 2,2,2-TRIFLUOROACETATE]
- IC50 (Nav 1.7 [1]): 7960 nM
- IC50 (Nav 1.7 [2]): 540 nM

SMILES: O=S(=O)(Nc1ccncn1)c1ccc2c(OCCCc3ccc(Cl)cc3)nccc2c1 [Example 132, 1-(3-(4-CHLOROPHENYL)PROPOXY)-N-(PYRIMIDIN-4-YL)ISOQUINOLINE-6-SULFONAMIDE]
- IC50 (Nav 1.7 [1]): 7900 nM
- IC50 (Nav 1.7 [2]): 870 nM

SMILES: COc1ccc(-c2nccc3cc(S(=O)(=O)Nc4ccncn4)ccc23)c(OC)c1 [Example 172, 1-(2,4-DIMETHOXYPHENYL)-N-(PYRIMIDIN-4-YL)ISOQUINOLINE-6-SULFONAMIDE]
- IC50 (Nav 1.7 [1]): 16600 nM
- IC50 (Nav 1.7 [2]): 270 nM

SMILES: COc1cc(C(F)(F)F)ccc1-c1nccc2cc(S(=O)(=O)Nc3ccnc(C)n3)ccc12 [Example 182, 1-(2-METHOXY-4-(TRIFLUOROMETHYL)PHENYL)-N-(2-METHYLPYRIMIDIN-4-YL)ISOQUINOLINE-6-SULFONAMIDE]
- IC50 (Nav 1.7 [1]): 11700 nM
- IC50 (Nav 1.7 [2]): 4260 nM

SMILES: COCc1cc(C(F)(F)F)ccc1-c1nccc2cc(S(=O)(=O)Nc3nccs3)ccc12 [Example 225, 1-(2-(METHOXYMETHYL)-4-(TRIFLUOROMETHYL)PHENYL)-N-(THIAZOL-2-YL)ISOQUINOLINE-6-SULFONAMIDE]
- IC50 (Nav 1.7 [1]): 741 nM
- IC50 (Nav 1.7 [2]): 30 nM

SMILES: COc1cc(C(F)(F)F)ccc1-c1nc(N(C)C)cc2cc(S(=O)(=O)Nc3nccs3)ccc12 [Example 223, 3-(DIMETHYLAMINO)-1-(2-METHOXY-4-(TRIFLUOROMETHYL)PHENYL)-N-(THIAZOL-2-YL)ISOQUINOLINE-6-SULFONAMIDE]
- IC50 (Nav 1.7 [1]): 6520 nM
- IC50 (Nav 1.7 [2]): 1100 nM

SMILES: COc1cc(C#N)ccc1-c1ncc(F)c2cc(S(=O)(=O)Nc3ccncn3)ccc12 [Example 218, 1-(4-cyano-2-methoxyphenyl)-4-fluoro-N-(pyrimidin-4-yl)isoquinoline-6-sulfonamide]
- IC50 (Nav 1.7 [1]): 4630 nM
- IC50 (Nav 1.7 [2]): 70 nM
